What all share (assay): MIC, broth microdilution (NCCLS)
What all share (format): cell-based
For orientation: Dilution methods test growth across graded concentrations, often in twofold steps.

The subject of assay [1] is Streptococcus pyogenes Stpy_8668. The protocol:
(§1) Strains. The bacterial isolates listed in Table 4 were cultivated from −70° C. frozen stocks by two consecutive overnight passages (P1, P2) at 35° C. on 5% blood agar (Remel, Lenexa, Kans.). Chocolate agar (Remel) is used for Haemophilus influenzae. H. influenzae and Streptococcus pneumoniae are incubated in 5-10% CO2
(§2) Drug Stock Preparation. To determine the amount of solvent to be used to give the desired final concentration, the formula “weight obtained in mg/final concentration in mg/ml” will be used. It will give the amount of solvent in ml needed to be added to give the desired concentration. For example, if 2.5 mg/ml is the desired concentration and the weight of compound is 13.7 mg, then the amount of solvent to be added is […]. Methanol is used as the solvent to dissolve the test compounds. Further dilution of stock is done in sterile, deionized water. Drug stocks are kept frozen at −70° C., protected from light.
(§3) Susceptibility Testing. MICs are determined by the broth microdilution method in accordance with the NCCLS guidelines. In brief, organism suspensions are adjusted to a 0.5 McFarland standard to yield a final inoculum between 3×10^5 and 7×10^5 CFU/ml. Drug dilutions and inocula are made in sterile, cation adjusted Mueller-Hinton Broth (CAMHB) (Remel) for all but S. pneumoniae [CAMHB with 2-5% lysed horse blood (Remel)] and H. influenzae [Haemophilus Test Medium (Remel)]. An inoculum volume of 100 μl is added to wells containing 100 μl of broth with 2-fold serial dilutions of drug. All inoculated microdilution trays are incubated in ambient air at 35° C. for 18-24 hours, except for S. pneumoniae, and H. influenzae (both at 5-10% CO2).
(§4) Following appropriate incubation, the MIC is determined and the MIC is defined as the lowest concentration of the drug that prevented visible growth.
(§5) Strains. The bacterial isolates listed in Table 8 were cultivated from −70° C. frozen stocks by two consecutive overnight passages (P1, P2) at 35° C. on 5% blood agar (Remel, Lenexa, Kans.). Chocolate agar (Remel) is used for Haemophilus influenzae. H. influenzae and Streptococcus pneumoniae are incubated in 5-10% CO2
(§6) Following appropriate incubation, the MIC is determined and the MIC is defined as the lowest concentration of the drug that prevented visible growth. […] Antibacterial activity of representative compounds of the invention were compared against telitromycin.

Assay [2] concerns Streptococcus pneumoniae Stpn_49619. The procedure: as §1, §2, §3, §4, §5, §6
Assay [3] concerns Streptococcus pneumoniae Stpn_297-749. The procedure:
as §1, §2, §3, §4, §5, §6

Assay [4] concerns Streptococcus pneumoniae Stpn_280-962. The protocol:
as §1, §2, §3, §4, §5, §6

Setting [5] is: Table 7, Strain ID E (Table 6): S. pyogenes Stpy_8668.
The mark [6] stands for this setting: Table 7, Strain ID F (Table 6): S. pneumoniae Stpn_49619.
[7] abbreviates: Table 7, Strain ID G (Table 6): S. pneumoniae Stpn_297-749.
The mark [8] stands for this setting: Table 7, Strain ID H (Table 6): S. pneumoniae Stpn_280-962.

Turning to `CC[C@H]1OC(=O)[C@H](C)C(=O)[C@H](C)[C@@H](OC2O[C@H](C)C[C@H](N(C)C)[C@H]2O)[C@@](C)(OC)C[C@@H](C)C(=O)[C@H](C)[C@H]2N(CCCC(C)(C)n3cnc4cccnc43)C(=O)O[C@]12CC` (stereo partly drawn) [Example 38, (3aS,4R,7R,9R,10R,11S,13R,15R,15aR)-3a,4-diethyl-1-[4-(3H-imidazo[4,5-b]pyridin-3-yl)-4-methylpentyl]-11-methoxy-7,9,11,13,15-pentamethyl-2,6,8,14-tetraoxotetradecahydro-2H-oxacyclotetradecino[4,3-d][1,3]oxazol-10-yl-3,4,6-trideoxy-3-(dimethylamino)-D-xylo-hexopyranoside], the MIC entry in assay [1] (setting [5]), in assay [2] (setting [6]), in assay [3] (setting [7]) and in assay [4] (setting [8]) was “=0.05” throughout.
With `CC[C@H]1OC(=O)[C@@](C)(F)C(=O)[C@H](C)[C@@H](OC2O[C@H](C)C[C@H](N(C)C)[C@H]2O)[C@@](C)(OC)C[C@@H](C)C(=O)[C@H](C)[C@H]2N(CCCCc3ccnc4ccccc34)C(=O)O[C@]12CC` (stereo partly drawn) [Example 17, (3aS,4R,7S,9R,10R,11S,13R,15R,15aR)-3a,4-diethyl-7-fluoro-11-methoxy-7,9,11,13,15-pentamethyl-2,6,8,14-tetraoxo-1-(4-quinolin-4-ylbutyl)tetradecahydro-2H-oxacyclotetradecino[4,3-d][1,3]oxazol-10-yl-3,4,6-trideoxy-3-(dimethylamino)-D-xylo-hexopyranoside], the MIC result in assay [2] (setting [6]), in assay [3] (setting [7]) and in assay [4] (setting [8]) was “=0.05” throughout.
Take `CC[C@H]1OC(=O)[C@H](C)C(=O)[C@H](C)[C@@H](OC2O[C@H](C)C[C@H](N(C)C)[C@H]2O)[C@@](C)(OC)C[C@@H](C)C(=O)[C@H](C)[C@H]2N(CCCCn3cnc(-c4cccnc4)c3C)C(=O)O[C@]12CC` (stereo partly drawn) [Example 21, (3aS,4R,7R,9R,10R,11S,13R,15R,15aR)-3a,4-DIETHYL-11-METHOXY-7,9,11,13,15-PENTAMETHYL-1-[4-(5-METHYL-4-PYRIDIN-3-YL-1H-IMIDAZOL-1-YL)BUTYL]-2,6,8,14-TETRAOXOTETRADECAHYDRO-2H-OXACYCLOTETRADECINO[4,3-D][1,3]OXAZOL-10-YL-3,4,6-TRIDEOXY-3-(DIMETHYLAMINO)-D-XYLO-HEXOPYRANOSIDE]: the MIC entry in assay [1] (setting [5]), in assay [2] (setting [6]), in assay [3] (setting [7]) and in assay [4] (setting [8]) was “=0.05” throughout.
`CC[C@H]1OC(=O)[C@H](C)[C@@H](O[C@H]2C[C@@](C)(OC)[C@@H](O)[C@H](C)O2)[C@H](C)[C@@H](O[C@@H]2O[C@H](C)C[C@H](N(C)C)[C@H]2O)[C@](C)(OC)C[C@@H](C)C(=O)[C@H](C)[C@@H](O)[C@]1(C)O` [Clar., clarithromycin, reference compound]: the MIC result is given as “=0.05” in assay [1] (Table 5, Strain ID D (Table 4): S. pyogenes Stpy_8668); “=0.05” in assay [2] (Table 5, Strain ID E (Table 4): S. pneumoniae Stpn_49619); “=0.05” in assay [3] (Table 5, Strain ID F (Table 4): S. pneumoniae Stpn_297-749 Pen R); “=0.05” in assay [4] (Table 5, Strain ID G (Table 4): S. pneumoniae Stpn_280-962 Pen S).
In the case of `CC[C@H]1OC(=O)[C@H](C)C(=O)[C@H](C)[C@@H](OC2O[C@H](C)C[C@H](N(C)C)[C@H]2O)[C@@](C)(OC)C[C@@H](C)C(=O)[C@H](C)[C@H]2N(CCCCn3cnc(-c4ccc(C)nc4)c3)C(=O)O[C@]12CC` (stereo partly drawn) [Example 29, (3aS,4R,7R,9R,10R,11S,13R,15R,15aR)-3a,4-diethyl-11-methoxy-7,9,11,13,15-pentamethyl-1-{4-[4-(6-methylpyridin-3-yl)-1H-imidazol-1-yl]butyl}-2,6,8,14-tetraoxotetradecahydro-2H-oxacyclotetradecino[4,3-d][1,3]oxazol-10-yl-3,4,6-trideoxy-3-(dimethylamino)-D-xylo-hexopyranoside], the MIC result in assay [1] (setting [5]), in assay [2] (setting [6]), in assay [3] (setting [7]) and in assay [4] (setting [8]) was “=0.05” in each case.
As to `CC[C@H]1OC(=O)[C@H](C)C(=O)[C@H](C)[C@@H](OC2O[C@H](C)C[C@H](N(C)C)[C@H]2O)[C@@](C)(OC)C[C@@H](C)C(=O)[C@H](C)[C@H]2N(CCCCn3cnc(-c4cncnc4)c3)C(=O)O[C@]12CC` (stereo partly drawn) [Example 25, (3aS,4R,7R,9R,10R,11S,13R,15R,15aR)-3a,4-diethyl-11-methoxy-7,9,11,13,15-pentamethyl-2,6,8,14-tetraoxo-1-[4-(4-pyrimidin-5-yl-1H-imidazol-1-yl)butyl]tetradecahydro-2H-oxacyclotetradecino[4,3-d][1,3]oxazol-10-yl-3,4,6-trideoxy-3-(dimethylamino)-D-xylo-hexopyranoside], the MIC entry in assay [1] (setting [5]), in assay [2] (setting [6]), in assay [3] (setting [7]) and in assay [4] (setting [8]) was “=0.05” each time.
For `CC[C@H]1OC(=O)[C@@](C)(F)C(=O)[C@H](C)[C@@H](OC2O[C@H](C)C[C@H](N(C)C)[C@H]2O)[C@@](C)(OC)C[C@@H](C)C(=O)[C@H](C)[C@H]2N(CCCCn3cnc(-c4ccc(C)nc4)c3)C(=O)O[C@]12CC` (stereo partly drawn) [Example 30, (3aS,4R,7S,9R,10R,11S,13R,15R,15aR)-3a,4-diethyl-7-fluoro-11-methoxy-7,9,11,13,15-pentamethyl-1-{4-[4-(6-methylpyridin-3-yl)-1H-imidazol-1-yl]butyl}-2,6,8,14-tetraoxotetradecahydro-2H-oxacyclotetradecino[4,3-d][1,3]oxazol-10-yl 3,4,6-trideoxy-3-(dimethylamino)-D-xylo-hexopyranoside], the MIC result in assay [1] (setting [5]), in assay [2] (setting [6]), in assay [3] (setting [7]) and in assay [4] (setting [8]) was “=0.05” each time.
On to `CC[C@H]1OC(=O)[C@H](C)C(=O)[C@H](C)[C@@H](OC2O[C@H](C)C[C@H](N(C)C)[C@H]2O)[C@@](C)(OC)C[C@@H](C)C(=O)[C@H](C)[C@H]2N(CCCCn3cnc(-c4ccncc4)c3)C(=O)O[C@]12CC` (stereo partly drawn) [Example 28, (3aS,4R,7R,9R,10R,11S,13R,15R,15aR)-3a,4-DIETHYL-11-METHOXY-7,9,11,13,15-PENTAMETHYL-2,6,8,14-TETRAOXO-1-[4-(4-PYRIDIN-4-YL-1H-IMIDAZOL-1-YL)BUTYL]TETRADECAHYDRO-1H-OXACYCLOTETRADECINO[4,3-D][1,3]OXAZOL-10-YL-3,4,6-TRIDEOXY-3-(DIMETHYLAMINO)-D-XYLO-HEXOPYRANOSIDE], for which the MIC entry in assay [1] (setting [5]), in assay [2] (setting [6]), in assay [3] (setting [7]) and in assay [4] (setting [8]) was “=0.05” each time.
For the compound `CC[C@H]1OC(=O)[C@@](C)(F)C(=O)[C@H](C)[C@@H](OC2O[C@H](C)C[C@H](N(C)C)[C@H]2O)[C@@](C)(OC)C[C@@H](C)C(=O)[C@H](C)[C@H]2N(CCCCc3ccc4ccccc4n3)C(=O)O[C@]12CC` (stereo partly drawn) [Example 19, (3aS,4R,7S,9R,10R,11S,13R,15R,15aR)-3a,4-diethyl-7-fluoro-11-methoxy-7,9,11,13,15-pentamethyl-2,6,8,14-tetraoxo-1-(4-quinolin-2-ylbutyl)tetradecahydro-2H-oxacyclotetradecino[4,3-d][1,3]oxazol-10-yl-3,4,6-trideoxy-3-(dimethylamino)-D-xylo-hexopyranoside], the MIC entry in assay [2] (setting [6]), in assay [3] (setting [7]) and in assay [4] (setting [8]) was “=0.05” each time.
Turning to `CC[C@H]1OC(=O)[C@@](C)(F)C(=O)[C@H](C)[C@@H](OC2O[C@H](C)C[C@H](N(C)C)[C@H]2O)[C@@](C)(OC)C[C@@H](C)C(=O)[C@H](C)[C@H]2N(CCCCn3cnc4ncccc43)C(=O)O[C@]12CC` (stereo partly drawn) [Example 27, (3aS,4R,7S,9R,10R,11S,13R,15R,15aR)-3a,4-diethyl-7-fluoro-1-[4-(1H-imidazo[4,5-b]pyridin-1-yl)butyl]-11-methoxy-7,9,11,13,15-pentamethyl-2,6,8,14-tetraoxotetradecahydro-2H-oxacyclotetradecino[4,3-d][1,3]oxazol-10-yl-3,4,6-trideoxy-3-(dimethylamino)-D-xylo-hexopyranoside], the MIC result in assay [1] (setting [5]), in assay [3] (setting [7]) and in assay [4] (setting [8]) was “=0.025” each time.

The record behind these values is patent publication US7332476B2, “Pyridyl substituted ketolide antibiotics” (Novartis AG, priority 2003, dated 2008).
